# Data: patent US20240124444A1 (Celgene Corporation, priority 2020, published 2024)
# Where two headings read alike, the source gives them in different places.
# Test system: C. parvum strain UGA1
# Test: C. parvum growth inhibition assay (Nluc luminescence in HCT-8 cells)
# Format: cell-based, Cryptosporidium parvum
# Settings: Cryptosporidium parvum; for inhibition at 1 µM / inhibition at 10 µM: HCT-8; for inhibition at 1 µM: read-out: % inh @ 1 uM C. parvum; for inhibition at 10 µM: read-out: % inh @ 10 uM C. parvum; for EC50: HCT-8, 48 h, C. parvum growth inhibition in HCT-8 cells, 48 hours, 6 concentrations 10-0.04 μM
# [1] = single point inhibition @ 10 uM
# [2] = single point inhibition at 1 uM
# [3] = single point inhibition at 10 uM
Structure (SMILES),inhibition at 1 µM (single point inhibition @ 1 uM) [%],inhibition at 10 µM [1] [%],EC50 [µM],inhibition at 1 µM [2] [%],inhibition at 10 µM [3] [%]
"Cc1cc(-c2cc3cnc(Nc4cccc(-c5nc[nH]n5)c4)cc3[nH]2)cc(N)n1 [Example 150, N-(3-(1H-1,2,4-triazol-3-yl)phenyl)-2-(2-amino-6-methylpyridin-4-yl)-1H-pyrrolo[3,2-c]pyridin-6-amine]",0 to 33,67 to 100,–,–,–
"O=C(Nc1cc2[nH]c(C3CCOCC3)cc2cn1)C1CC1 [Example 94, N-(2-(tetrahydro-2H-pyran-4-yl)-1H-pyrrolo[3,2-c]pyridin-6-yl)cyclopropanecarboxamide]",0 to 33,0 to 33,> 1,–,–
"O=C(Nc1cc2[nH]c(-c3ccnc(C(F)(F)F)n3)cc2cn1)C1CC(O)C1 (stereo not drawn) [Example 247, (1s,3s)-3-hydroxy-N-(2-(2-(trifluoromethyl)pyrimidin-4-yl)-1H-pyrrolo[3,2-c]pyridin-6-yl)cyclobutanecarboxamide]",–,–,–,33 to 66,0 to 33
"Cn1c(-c2cccnc2)cc2cnc(Nc3cnn(C4CCOCC4)c3)cc21 [Example 266, 1-methyl-2-(pyridin-3-yl)-N-(1-(tetrahydro-2H-pyran-4-yl)-1H-pyrazol-4-yl)-1H-pyrrolo[3,2-c]pyridin-6-amine]",–,–,–,0 to 33,0 to 33
"COC(=O)Nc1cc2[nH]c(-c3ccnc(C)c3)cc2cn1 [Example 174, methyl 2-(2-methylpyridin-4-yl)-1H-pyrrolo[3,2-c]pyridin-6-ylcarbamate]",0 to 33,67 to 100,–,–,–
"O=C(Nc1cc2[nH]c(-c3ccncc3)cc2cn1)C1CCOCC1 [Example 68, N-(2-(pyridin-4-yl)-1H-pyrrolo[3,2-c]pyridin-6-yl)tetrahydro-2H-pyran-4-carboxamide]",0 to 33,67 to 100,> 1,–,–
"CCc1cc(-c2cc3cnc(NC4CCOCC4)cc3n2C)ncn1 [Example 389, 2-(6-ethylpyrimidin-4-yl)-1-methyl-N-(tetrahydro-2H-pyran-4-yl)-1H-pyrrolo[3,2-c]pyridin-6-amine]",–,–,> 1,–,–
"Cn1cc(Nc2cc3[nH]c(-c4ccnc(C#N)c4)cc3cn2)cn1 [Example 56, 4-(6-(1-methyl-1H-pyrazol-4-ylamino)-1H-pyrrolo[3,2-c]pyridin-2-yl)picolinonitrile]",0 to 33,67 to 100,> 1,–,–
